Results reported in PubChem BioAssay AID248 (DTP/NCI, 2004).
Values joined by “and” are separate entries in the source; they are usually repeats but may differ in a detail not shown here. Identical values can stand only once. Inconclusive results and toxic doses are left out.

System: L1210 leukemia ip in BDF1 mice, survival T/C
Assay: NCI In Vivo Anticancer Drug Screen. Data for tumor model L1210 Leukemia (intraperitoneal) in B6D2F1 (BDF1) mice
Conditions: endpoint: mean survival time, higher = longer survival
Outline: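 Tumor cells were implanted, animals were treated, and survival was followed. The result divides the treated measurement by the vehicle-control measurement.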

[1] = dose: 50.0 mg/kg/injection, schedule: Q01DX001 (ip), vehicle: saline
[2] = dose: 100.0 mg/kg/injection, schedule: Q01DX001 (ip), vehicle: saline
[3] = dose: 200.0 mg/kg/injection, schedule: Q01DX001 (ip), vehicle: saline
[4] = dose: 400.0 mg/kg/injection, schedule: Q01DX001 (ip), vehicle: saline
[5] = dose: 100.0 mg/kg/injection, schedule: Q01DX009 (ip), vehicle: saline
[6] = dose: 200.0 mg/kg/injection, schedule: Q01DX009 (ip), vehicle: saline
[7] = dose: 400.0 mg/kg/injection, schedule: Q01DX009 (ip), vehicle: saline
[8] = dose: 100.0 mg/kg/injection, schedule: Q04DX003 (ip), vehicle: saline
[9] = dose: 200.0 mg/kg/injection, schedule: Q04DX003 (ip), vehicle: saline
[10] = dose: 100.0 mg/kg/injection, schedule: Q01DX009 (ip), vehicle: Klucel (hydroxypropylcellulose) (HPC)
[11] = dose: 100.0 mg/kg/injection, schedule: Q04DX003 (ip), vehicle: Klucel (hydroxypropylcellulose) (HPC)
[12] = dose: 200.0 mg/kg/injection, schedule: Q01DX009 (ip), vehicle: Klucel (hydroxypropylcellulose) (HPC)
[13] = dose: 200.0 mg/kg/injection, schedule: Q04DX003 (ip), vehicle: Klucel (hydroxypropylcellulose) (HPC)
[14] = dose: 400.0 mg/kg/injection, schedule: Q04DX003 (ip), vehicle: Klucel (hydroxypropylcellulose) (HPC)
[15] = dose: 100.0 mg/kg/injection, schedule: Q01DX001 (ip), vehicle: saline with Tween-80
[16] = dose: 400.0 mg/kg/injection, schedule: Q01DX009 (ip), vehicle: Klucel (hydroxypropylcellulose) (HPC)
[17] = dose: 100.0 mg/kg/injection, schedule: Q01DX001 (ip), vehicle: Klucel (hydroxypropylcellulose) (HPC)
[18] = dose: 200.0 mg/kg/injection, schedule: Q01DX001 (ip), vehicle: Klucel (hydroxypropylcellulose) (HPC)
[19] = dose: 400.0 mg/kg/injection, schedule: Q01DX001 (ip), vehicle: Klucel (hydroxypropylcellulose) (HPC)
[20] = dose: 50.0 mg/kg/injection, schedule: Q01DX009 (ip), vehicle: saline

CC(C(=O)c1cccs1)=C(C(F)(F)F)C(F)(F)F
T/C (dose: 100.0 mg/kg/injection, schedule: Q04DX003 (ip), vehicle: other): 100 % of control
T/C (dose: 200.0 mg/kg/injection, schedule: Q04DX003 (ip), vehicle: other): 94 % of control
T/C (dose: 400.0 mg/kg/injection, schedule: Q04DX003 (ip), vehicle: other): 98 % of control

CCOC(=O)c1cc(OC)c[nH]1
T/C [1]: 100 % of control
T/C [2]: 94 % of control
T/C [3]: 88 % of control
T/C [4]: 105 % of control

Cc1ccc([N+](=O)[O-])cc1NC(=O)OCCOc1ccccc1
T/C [5]: 90 % of control
T/C [6]: 103 % of control
T/C [7]: 92 % of control

CC(CC#N)NCC[P+](c1ccccc1)(c1ccccc1)c1ccccc1 (stereo not drawn)
T/C [8]: 95 % of control
T/C [9]: 96 % of control

CSc1nc2ccccc2s1
T/C [10]: 97 % of control
T/C [11]: 105 % of control
T/C [12]: 100 % of control
T/C [13]: 104 % of control
T/C [14]: 95 % of control

Cc1ccc([I+]c2ccc(C)c(C)c2)cc1C
T/C (dose: 1.0 mg/kg/injection, schedule: Q01DX001 (ip), vehicle: acetone): 102 % of control
T/C (dose: 2.0 mg/kg/injection, schedule: Q01DX001 (ip), vehicle: acetone): 98 % of control
T/C (dose: 4.0 mg/kg/injection, schedule: Q01DX001 (ip), vehicle: acetone): 105 % of control
T/C (dose: 5.9 mg/kg/injection, schedule: Q01DX001 (ip), vehicle: saline): 103 % of control
T/C (dose: 9.0 mg/kg/injection, schedule: Q01DX001 (ip), vehicle: saline): 97 % of control
T/C (dose: 13.0 mg/kg/injection, schedule: Q01DX001 (ip), vehicle: saline): 100 % of control
T/C (dose: 19.0 mg/kg/injection, schedule: Q01DX001 (ip), vehicle: saline): 102 % of control
T/C (dose: 29.0 mg/kg/injection, schedule: Q01DX001 (ip), vehicle: saline): 101 % of control
T/C (dose: 45.0 mg/kg/injection, schedule: Q01DX001 (ip), vehicle: saline): 98 % of control
T/C (dose: 65.0 mg/kg/injection, schedule: Q01DX001 (ip), vehicle: saline with Tween-80): 96 % of control
T/C [15]: 97 % of control
T/C (dose: 150.0 mg/kg/injection, schedule: Q01DX001 (ip), vehicle: saline with Tween-80): 94 % of control
T/C (dose: 225.0 mg/kg/injection, schedule: Q01DX001 (ip), vehicle: saline with Tween-80): 102 % of control
T/C (dose: 340.0 mg/kg/injection, schedule: Q01DX001 (ip), vehicle: saline with Tween-80): 96 % of control

Oc1ccc2ccccc2c1Cc1cccc2ccccc12
T/C (dose: 100.0 mg/kg/injection, schedule: Q01DX009 (ip), vehicle: saline with Tween-80): 90 % of control
T/C (dose: 200.0 mg/kg/injection, schedule: Q01DX009 (ip), vehicle: saline with Tween-80): 95 % of control

CC1(C#N)CC(c2ccccc2)Nc2ccccc2N1 (stereo not drawn)
T/C [10]: 92 % of control
T/C [11]: 98 % of control
T/C [12]: 100 % of control
T/C [13]: 96 % of control
T/C (dose: 264.0 mg/kg/injection, schedule: Q04DX003 (ip), vehicle: Klucel (hydroxypropylcellulose) (HPC)): 96 % of control and 97 % of control
T/C [16]: 97 % of control

CC(=O)Oc1cc2c(OC(C)=O)c(-c3c(C)cc4c(C(C)C)c(OC(C)=O)c(OC(C)=O)cc4c3OC(C)=O)c(C)cc2c(C(C)C)c1OC(C)=O
T/C (dose: 100.0 mg/kg/injection, schedule: Q04DX003 (ip), vehicle: saline with Tween-80): 86 % of control

CCC(Cl)COP(=O)(CC(Cl)CC)OC(C)P(=O)(OCC(Cl)CC)OCC(Cl)CC (stereo not drawn)
T/C [17]: 101 % of control
T/C [18]: 121 % of control
T/C [19]: 97 % of control

CSc1nc(N)nc2c1ncn2C1CC(O)C(CO)O1 (stereo not drawn)
T/C (dose: 100.0 mg/kg/injection, schedule: Q01DX005 (ip), vehicle: saline): 105 % of control and 112 % of control and 96 % of control
T/C [5]: 121 % of control
T/C (dose: 200.0 mg/kg/injection, schedule: Q01DX005 (ip), vehicle: saline): 112 % of control and 121 % of control and 91 % of control
T/C [6]: 115 % of control
T/C [7]: 116 % of control

COC(=O)N/N=C/c1ccccc1Cl
T/C [10]: 108 % of control
T/C (dose: 100.0 mg/kg/injection, schedule: Q04DX002 (ip), vehicle: Klucel (hydroxypropylcellulose) (HPC)): 93 % of control
T/C [12]: 121 % of control
T/C (dose: 200.0 mg/kg/injection, schedule: Q04DX002 (ip), vehicle: Klucel (hydroxypropylcellulose) (HPC)): 104 % of control
T/C (dose: 400.0 mg/kg/injection, schedule: Q04DX002 (ip), vehicle: Klucel (hydroxypropylcellulose) (HPC)): 96 % of control

CCOC(=O)CCCNCCCC(=O)OCC
T/C [2]: 97 % of control
T/C [3]: 103 % of control
T/C [4]: 114 % of control

CCc1ccc2ccc3c4ccccc4ccc3[n+]2c1
T/C (dose: 10.0 mg/kg/injection, schedule: Q01DX001 (ip), vehicle: saline): 93 % of control
T/C (dose: 20.0 mg/kg/injection, schedule: Q01DX001 (ip), vehicle: saline): 90 % of control
T/C (dose: 40.0 mg/kg/injection, schedule: Q01DX001 (ip), vehicle: saline): 94 % of control

[C-]#[N+]C([N+]#[C-])=S(C)C
T/C [20]: 102 % of control
T/C [5]: 109 % of control
T/C [8]: 103 % of control
T/C [6]: 105 % of control
T/C [9]: 101 % of control

NC(N)=N/N=C(\c1ccc(Br)cc1)C1CC1
T/C (dose: 15.0 mg/kg/injection, schedule: Q01DX Z (ip), vehicle: carboxymethylcellulose (CMC)): 96 % of control
T/C (dose: 30.0 mg/kg/injection, schedule: Q01DX Z (ip), vehicle: carboxymethylcellulose (CMC)): 95 % of control
T/C (dose: 30.0 mg/kg/injection, schedule: Q01DX Z (oral), vehicle: carboxymethylcellulose (CMC)): 100 % of control
T/C (dose: 60.0 mg/kg/injection, schedule: Q01DX Z (ip), vehicle: carboxymethylcellulose (CMC)): 96 % of control
T/C (dose: 60.0 mg/kg/injection, schedule: Q01DX Z (oral), vehicle: carboxymethylcellulose (CMC)): 115 % of control
T/C (dose: 120.0 mg/kg/injection, schedule: Q01DX Z (oral), vehicle: carboxymethylcellulose (CMC)): 107 % of control and 121 % of control
T/C (dose: 240.0 mg/kg/injection, schedule: Q01DX Z (oral), vehicle: carboxymethylcellulose (CMC)): 102 % of control and 111 % of control

COc1cc2c(ccc3c4cc(OC)c(OC)cc4c[n+](C)c23)cc1O
T/C (dose: 80.0 mg/kg/injection, schedule: Q01DX009 (ip), vehicle: saline): 159 % of control
T/C [11]: 120 % of control
T/C (dose: 320.0 mg/kg/injection, schedule: Q01DX009 (ip), vehicle: saline): 161 % of control
T/C [14]: 120 % of control

CCOC(=O)c1cnc(SC)nc1Nc1ccc(C)cc1C
T/C [10]: 96 % of control
T/C [12]: 101 % of control
T/C [16]: 109 % of control

C/C(=N/O)c1ccc(C)s1
T/C (dose: 100.0 mg/kg/injection, schedule: Q01DX001 (ip), vehicle: carboxymethylcellulose (CMC)): 94 % of control
T/C (dose: 200.0 mg/kg/injection, schedule: Q01DX001 (ip), vehicle: carboxymethylcellulose (CMC)): 100 % of control
T/C (dose: 400.0 mg/kg/injection, schedule: Q01DX001 (ip), vehicle: carboxymethylcellulose (CMC)): 100 % of control

CC1(C)CCCC2(C)C3CCC(C31)C2OC(=O)c1ccc([N+](=O)[O-])cc1 (stereo not drawn)
T/C [17]: 101 % of control
T/C [18]: 98 % of control
T/C [19]: 93 % of control

O=C(Cc1ccc([N+](=O)[O-])cc1)Nc1cccc(O)c1
T/C [11]: 97 % of control
T/C [13]: 108 % of control
T/C [14]: 101 % of control

Nc1ccc(N2CCNCC2)cc1
T/C [20]: 101 % of control
T/C [5]: 107 % of control
T/C [6]: 111 % of control

O=C1NC(c2ccccc2)(c2ccccc2)C(=O)N1CC1CO1 (stereo not drawn)
T/C [5]: 100 % of control
T/C [8]: 103 % of control
T/C [6]: 91 % of control
T/C [9]: 102 % of control
T/C [7]: 93 % of control
T/C (dose: 400.0 mg/kg/injection, schedule: Q04DX003 (ip), vehicle: saline): 97 % of control

NN1C(=O)c2c(Cl)c(Cl)c(Cl)c(Cl)c2C1=O
T/C [15]: 87 % of control
T/C (dose: 200.0 mg/kg/injection, schedule: Q01DX001 (ip), vehicle: saline with Tween-80): 87 % of control
T/C (dose: 400.0 mg/kg/injection, schedule: Q01DX001 (ip), vehicle: saline with Tween-80): 93 % of control

O=C1NC(=O)C(c2cccc(O)c2)N1 (stereo not drawn)
T/C [1]: 100 % of control
T/C [2]: 100 % of control
T/C [3]: 100 % of control
T/C [4]: 100 % of control
